According to paper PMC3968014, “Design and Synthesis of a Library of Lead-Like 2,4-Bisheterocyclic Substituted Thiophenes as Selective Dyrk/Clk Inhibitors” (PLoS ONE, 2014):
pIC50: −log10 of the molar value. Values joined by “and” are separate entries in the source; they are usually repeats but may differ in a detail not shown here. Equal entries are not always repeated.

Experiments:
Format in all cases: biochemical
MKNK1 (MNK1) = molecular target: T1, MKNK1 (MNK1) (Homo sapiens, UniProt Q9BUB5); assay: Selectivity panel MKNK1; conditions: 5 µM inhibitor
T1 construct: purchased Life Technologies (Invitrogen SelectScreen); Dyrk1A, Dyrk2 and CK2α in-house or gifts

CDK1/cyclin B = molecular target: T2, CDK1/cyclin B (Homo sapiens, UniProt P06493); assay: Selectivity panel CDK1/cyclin B; conditions: 5 µM inhibitor
T2 construct: purchased Life Technologies (Invitrogen SelectScreen); Dyrk1A, Dyrk2 and CK2α in-house or gifts

RIPK2 = molecular target: T3, RIPK2 (Homo sapiens, UniProt O43353); assay: Selectivity panel RIPK2; conditions: 5 µM inhibitor
T3 construct: purchased Life Technologies (Invitrogen SelectScreen); Dyrk1A, Dyrk2 and CK2α in-house or gifts
T3 sequence (O43353 whole entry): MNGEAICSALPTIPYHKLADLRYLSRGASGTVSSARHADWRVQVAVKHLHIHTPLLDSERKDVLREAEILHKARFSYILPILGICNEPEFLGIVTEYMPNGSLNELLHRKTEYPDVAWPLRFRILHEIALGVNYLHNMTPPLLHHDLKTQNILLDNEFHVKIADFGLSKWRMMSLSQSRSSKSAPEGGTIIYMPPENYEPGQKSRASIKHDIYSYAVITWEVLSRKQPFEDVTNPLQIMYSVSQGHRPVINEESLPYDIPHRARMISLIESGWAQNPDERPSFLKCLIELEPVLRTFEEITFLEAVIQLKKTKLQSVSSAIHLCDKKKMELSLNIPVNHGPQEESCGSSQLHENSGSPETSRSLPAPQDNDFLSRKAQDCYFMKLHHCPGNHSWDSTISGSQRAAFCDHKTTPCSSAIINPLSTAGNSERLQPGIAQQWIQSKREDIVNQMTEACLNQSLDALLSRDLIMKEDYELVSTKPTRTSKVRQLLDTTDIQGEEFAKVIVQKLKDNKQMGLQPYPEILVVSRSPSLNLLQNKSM

MAP4K2 (GCK) = molecular target: T4, MAP4K2 (GCK) (Homo sapiens, UniProt Q12851); assay: Selectivity panel MAP4K2; conditions: 5 µM inhibitor
T4 construct: purchased Life Technologies (Invitrogen SelectScreen); Dyrk1A, Dyrk2 and CK2α in-house or gifts

RPS6KA5 (MSK1) = molecular target: T5, RPS6KA5 (MSK1) (Homo sapiens, UniProt O75582); assay: Selectivity panel RPS6KA5; conditions: 5 µM inhibitor
T5 construct: purchased Life Technologies (Invitrogen SelectScreen); Dyrk1A, Dyrk2 and CK2α in-house or gifts
T5 sequence (O75582 whole entry): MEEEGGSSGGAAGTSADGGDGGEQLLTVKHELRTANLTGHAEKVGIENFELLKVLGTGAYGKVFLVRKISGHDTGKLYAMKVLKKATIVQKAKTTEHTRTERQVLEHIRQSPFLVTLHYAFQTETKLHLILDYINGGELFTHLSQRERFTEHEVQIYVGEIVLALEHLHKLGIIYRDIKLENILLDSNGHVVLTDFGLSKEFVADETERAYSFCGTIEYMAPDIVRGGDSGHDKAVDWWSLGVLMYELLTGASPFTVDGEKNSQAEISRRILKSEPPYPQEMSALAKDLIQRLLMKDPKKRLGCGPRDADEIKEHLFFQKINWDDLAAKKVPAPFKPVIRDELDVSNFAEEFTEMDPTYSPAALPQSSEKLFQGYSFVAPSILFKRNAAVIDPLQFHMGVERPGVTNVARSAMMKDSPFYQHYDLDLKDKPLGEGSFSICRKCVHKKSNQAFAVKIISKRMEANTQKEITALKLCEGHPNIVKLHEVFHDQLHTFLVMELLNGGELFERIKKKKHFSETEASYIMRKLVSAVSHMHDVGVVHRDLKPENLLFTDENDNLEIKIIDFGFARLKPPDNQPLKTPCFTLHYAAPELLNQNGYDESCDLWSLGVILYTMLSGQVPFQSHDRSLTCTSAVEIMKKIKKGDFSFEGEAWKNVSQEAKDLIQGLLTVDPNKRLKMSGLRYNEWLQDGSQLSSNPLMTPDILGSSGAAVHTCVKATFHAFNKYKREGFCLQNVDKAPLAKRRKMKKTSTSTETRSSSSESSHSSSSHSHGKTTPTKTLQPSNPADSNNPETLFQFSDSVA

Dyrk2 = molecular target: T6, Dyrk2 (Homo sapiens, UniProt Q92630); assay: Dyrk2 kinase assay (32P-ATP, Woodtide); conditions: for pIC50: 100 µM ATP, read-out: IC50 Dyrk2; for inhibition at 5 µM: read-out: percentage of inhibition Dyrk2
T6 construct: made in house; host or cells: Escherichia coli BL21(DE3) with pRARE; plasmid pGEX-2TK-Dyrk2 (gift from W. Becker, Aachen)
T6 sequence (Q92630 1-601): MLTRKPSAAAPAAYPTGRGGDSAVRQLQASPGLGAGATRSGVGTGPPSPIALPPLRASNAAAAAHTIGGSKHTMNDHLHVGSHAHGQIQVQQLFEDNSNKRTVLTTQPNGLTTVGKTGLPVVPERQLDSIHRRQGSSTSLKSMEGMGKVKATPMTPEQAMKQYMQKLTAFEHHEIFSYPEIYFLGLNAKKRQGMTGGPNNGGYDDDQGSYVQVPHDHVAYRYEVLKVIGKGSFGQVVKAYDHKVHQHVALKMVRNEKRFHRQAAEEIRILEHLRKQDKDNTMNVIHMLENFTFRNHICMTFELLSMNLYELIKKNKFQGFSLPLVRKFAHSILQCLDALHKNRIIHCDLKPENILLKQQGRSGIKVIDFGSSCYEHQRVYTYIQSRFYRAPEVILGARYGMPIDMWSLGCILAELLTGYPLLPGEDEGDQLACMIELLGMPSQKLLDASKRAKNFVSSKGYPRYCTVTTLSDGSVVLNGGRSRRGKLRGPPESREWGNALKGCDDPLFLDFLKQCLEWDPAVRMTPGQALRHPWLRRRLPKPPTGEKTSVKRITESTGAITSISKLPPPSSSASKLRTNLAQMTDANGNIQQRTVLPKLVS

PKN1 (PRK1) = molecular target: T7, PKN1 (PRK1) (Homo sapiens, UniProt Q16512); assay: Selectivity panel PKN1; conditions: 5 µM inhibitor
T7 construct: purchased Life Technologies (Invitrogen SelectScreen); Dyrk1A, Dyrk2 and CK2α in-house or gifts
T7 sequence (Q16512 whole entry): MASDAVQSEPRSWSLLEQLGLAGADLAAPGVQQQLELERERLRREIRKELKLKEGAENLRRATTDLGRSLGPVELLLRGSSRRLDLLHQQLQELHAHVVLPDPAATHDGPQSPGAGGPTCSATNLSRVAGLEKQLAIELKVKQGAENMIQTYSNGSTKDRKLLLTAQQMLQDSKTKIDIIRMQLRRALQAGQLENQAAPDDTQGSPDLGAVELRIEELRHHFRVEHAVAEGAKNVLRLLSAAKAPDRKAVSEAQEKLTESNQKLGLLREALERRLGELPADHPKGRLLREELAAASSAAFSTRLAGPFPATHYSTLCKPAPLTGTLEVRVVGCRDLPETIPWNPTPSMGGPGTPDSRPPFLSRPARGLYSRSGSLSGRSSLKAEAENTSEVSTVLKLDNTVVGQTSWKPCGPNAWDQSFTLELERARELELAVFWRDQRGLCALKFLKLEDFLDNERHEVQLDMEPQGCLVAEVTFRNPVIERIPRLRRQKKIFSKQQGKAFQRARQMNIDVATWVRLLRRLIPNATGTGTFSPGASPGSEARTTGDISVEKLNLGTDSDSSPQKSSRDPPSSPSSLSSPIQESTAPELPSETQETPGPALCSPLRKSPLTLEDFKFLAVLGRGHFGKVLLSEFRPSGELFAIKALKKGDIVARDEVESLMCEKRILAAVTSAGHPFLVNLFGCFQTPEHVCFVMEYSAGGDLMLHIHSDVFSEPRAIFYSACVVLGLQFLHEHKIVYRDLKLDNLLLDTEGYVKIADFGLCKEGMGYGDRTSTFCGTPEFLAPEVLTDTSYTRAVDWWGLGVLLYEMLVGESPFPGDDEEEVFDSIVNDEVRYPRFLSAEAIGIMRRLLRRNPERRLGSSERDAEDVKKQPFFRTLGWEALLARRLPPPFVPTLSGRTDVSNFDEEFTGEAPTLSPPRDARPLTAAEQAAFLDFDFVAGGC

PRKD1 (PKC mu, PKD1) = molecular target: T8, PRKD1 (PKC mu, PKD1) (Homo sapiens, UniProt Q15139); assay: Selectivity panel PRKD1; conditions: 5 µM inhibitor
T8 construct: purchased Life Technologies (Invitrogen SelectScreen); Dyrk1A, Dyrk2 and CK2α in-house or gifts
T8 sequence (Q15139 whole entry): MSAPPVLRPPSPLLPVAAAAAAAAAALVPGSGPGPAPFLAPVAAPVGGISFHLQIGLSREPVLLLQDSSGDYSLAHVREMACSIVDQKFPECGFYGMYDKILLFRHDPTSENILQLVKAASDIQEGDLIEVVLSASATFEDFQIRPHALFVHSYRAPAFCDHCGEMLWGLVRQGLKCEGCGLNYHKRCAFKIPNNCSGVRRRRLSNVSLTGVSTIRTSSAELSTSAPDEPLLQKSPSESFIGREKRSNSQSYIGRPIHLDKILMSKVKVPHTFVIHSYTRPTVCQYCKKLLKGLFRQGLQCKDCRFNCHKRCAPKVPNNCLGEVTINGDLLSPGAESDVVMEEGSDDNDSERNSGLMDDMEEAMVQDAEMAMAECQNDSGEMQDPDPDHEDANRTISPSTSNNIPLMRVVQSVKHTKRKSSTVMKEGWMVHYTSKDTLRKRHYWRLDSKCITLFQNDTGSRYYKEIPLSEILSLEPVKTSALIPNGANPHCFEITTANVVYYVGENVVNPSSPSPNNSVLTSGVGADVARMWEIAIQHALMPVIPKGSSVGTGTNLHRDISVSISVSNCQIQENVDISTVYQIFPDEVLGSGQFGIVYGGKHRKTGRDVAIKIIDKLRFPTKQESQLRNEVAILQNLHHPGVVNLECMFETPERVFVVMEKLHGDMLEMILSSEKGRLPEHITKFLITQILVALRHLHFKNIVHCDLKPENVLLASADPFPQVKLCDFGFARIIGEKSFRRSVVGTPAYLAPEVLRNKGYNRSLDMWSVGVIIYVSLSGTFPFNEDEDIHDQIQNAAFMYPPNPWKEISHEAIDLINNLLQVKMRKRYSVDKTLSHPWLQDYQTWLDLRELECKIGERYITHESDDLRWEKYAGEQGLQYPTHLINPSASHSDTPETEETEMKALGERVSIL

AMPK A1/B1/G1 = molecular target: T9, AMPK A1/B1/G1 (Homo sapiens, UniProt Q13131); assay: Selectivity panel AMPK; conditions: 5 µM inhibitor
T9 construct: purchased Life Technologies (Invitrogen SelectScreen); Dyrk1A, Dyrk2 and CK2α in-house or gifts

CaMK1 = molecular target: T10, CaMK1 (Homo sapiens, UniProt Q14012); assay: Selectivity panel CaMK1; conditions: 5 µM inhibitor
T10 construct: purchased Life Technologies (Invitrogen SelectScreen); Dyrk1A, Dyrk2 and CK2α in-house or gifts
T10 sequence (Q14012 whole entry): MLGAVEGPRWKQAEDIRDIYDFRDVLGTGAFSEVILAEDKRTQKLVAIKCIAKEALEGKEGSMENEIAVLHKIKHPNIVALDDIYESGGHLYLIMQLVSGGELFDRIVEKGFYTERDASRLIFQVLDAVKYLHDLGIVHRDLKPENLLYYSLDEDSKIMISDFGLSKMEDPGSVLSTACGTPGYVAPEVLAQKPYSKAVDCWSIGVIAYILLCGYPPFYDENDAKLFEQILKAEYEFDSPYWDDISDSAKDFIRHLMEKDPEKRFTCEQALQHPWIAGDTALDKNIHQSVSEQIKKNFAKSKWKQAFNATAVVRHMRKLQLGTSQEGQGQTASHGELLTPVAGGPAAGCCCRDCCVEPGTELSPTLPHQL

BRSK1 (SAD1) = molecular target: T11, BRSK1 (SAD1) (Homo sapiens, UniProt Q8TDC3); assay: Selectivity panel BRSK1; conditions: 5 µM inhibitor
T11 construct: purchased Life Technologies (Invitrogen SelectScreen); Dyrk1A, Dyrk2 and CK2α in-house or gifts

PRKACA (PKA) = molecular target: T12, PRKACA (PKA) (Homo sapiens, UniProt P17612); assay: Selectivity panel PRKACA; conditions: 5 µM inhibitor
T12 construct: purchased Life Technologies (Invitrogen SelectScreen); Dyrk1A, Dyrk2 and CK2α in-house or gifts

TGFBR1 (ALK5) = molecular target: T13, TGFBR1 (ALK5) (Homo sapiens, UniProt P36897); assay: Selectivity panel TGFBR1; conditions: 5 µM inhibitor
T13 construct: purchased Life Technologies (Invitrogen SelectScreen); Dyrk1A, Dyrk2 and CK2α in-house or gifts

KDR (VEGFR2) = molecular target: T14, KDR (VEGFR2) (Homo sapiens, UniProt P35968); assay: Selectivity panel KDR; conditions: 5 µM inhibitor
T14 construct: purchased Life Technologies (Invitrogen SelectScreen); Dyrk1A, Dyrk2 and CK2α in-house or gifts

RPS6KA1 (RSK1) = molecular target: T15, RPS6KA1 (RSK1) (Homo sapiens, UniProt Q15418); assay: Selectivity panel RPS6KA1; conditions: 5 µM inhibitor
T15 construct: purchased Life Technologies (Invitrogen SelectScreen); Dyrk1A, Dyrk2 and CK2α in-house or gifts

LIMK1 = molecular target: T16, LIMK1 (Homo sapiens, UniProt P53667); assay: Selectivity panel LIMK1; conditions: 5 µM inhibitor
T16 construct: purchased Life Technologies (Invitrogen SelectScreen); Dyrk1A, Dyrk2 and CK2α in-house or gifts
T16 sequence (P53667 whole entry): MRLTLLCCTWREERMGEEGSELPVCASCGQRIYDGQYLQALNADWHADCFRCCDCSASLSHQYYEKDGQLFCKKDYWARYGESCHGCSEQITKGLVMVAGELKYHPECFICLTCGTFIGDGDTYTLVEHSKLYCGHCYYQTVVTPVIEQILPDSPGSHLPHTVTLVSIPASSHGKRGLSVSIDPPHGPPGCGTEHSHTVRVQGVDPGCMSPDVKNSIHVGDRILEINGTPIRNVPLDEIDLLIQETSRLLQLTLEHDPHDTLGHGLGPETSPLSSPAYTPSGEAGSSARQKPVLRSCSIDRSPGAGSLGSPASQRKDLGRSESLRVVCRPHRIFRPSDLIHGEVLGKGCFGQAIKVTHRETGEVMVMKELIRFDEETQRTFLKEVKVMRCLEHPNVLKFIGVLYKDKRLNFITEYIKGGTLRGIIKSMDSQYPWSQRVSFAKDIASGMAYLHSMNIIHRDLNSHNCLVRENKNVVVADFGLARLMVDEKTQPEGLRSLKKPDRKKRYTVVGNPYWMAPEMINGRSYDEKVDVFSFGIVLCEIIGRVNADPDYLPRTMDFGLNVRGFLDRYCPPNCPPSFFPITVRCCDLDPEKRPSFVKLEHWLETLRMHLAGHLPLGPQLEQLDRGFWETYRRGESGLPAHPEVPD

MAP3K14 (NIK) = molecular target: T17, MAP3K14 (NIK) (Homo sapiens, UniProt Q99558); assay: Selectivity panel MAP3K14; conditions: 5 µM inhibitor
T17 construct: purchased Life Technologies (Invitrogen SelectScreen); Dyrk1A, Dyrk2 and CK2α in-house or gifts

AXL = molecular target: T18, AXL (Homo sapiens, UniProt P30530); assay: Selectivity panel AXL; conditions: 5 µM inhibitor
T18 construct: purchased Life Technologies (Invitrogen SelectScreen); Dyrk1A, Dyrk2 and CK2α in-house or gifts

CDK2/cyclin A = molecular target: T19, CDK2/cyclin A (Homo sapiens, UniProt P24941); assay: Selectivity panel CDK2/cyclin A; conditions: 5 µM inhibitor
T19 construct: purchased Life Technologies (Invitrogen SelectScreen); Dyrk1A, Dyrk2 and CK2α in-house or gifts

BTK = molecular target: T20, BTK (Homo sapiens, UniProt Q06187); assay: Selectivity panel BTK; conditions: 5 µM inhibitor
T20 construct: purchased Life Technologies (Invitrogen SelectScreen); Dyrk1A, Dyrk2 and CK2α in-house or gifts

MST1 (STK4) = molecular target: T21, MST1 (STK4) (Homo sapiens, UniProt Q13043); assay: Selectivity panel MST1; conditions: 5 µM inhibitor
T21 construct: purchased Life Technologies (Invitrogen SelectScreen); Dyrk1A, Dyrk2 and CK2α in-house or gifts
T21 sequence (Q13043 1-487): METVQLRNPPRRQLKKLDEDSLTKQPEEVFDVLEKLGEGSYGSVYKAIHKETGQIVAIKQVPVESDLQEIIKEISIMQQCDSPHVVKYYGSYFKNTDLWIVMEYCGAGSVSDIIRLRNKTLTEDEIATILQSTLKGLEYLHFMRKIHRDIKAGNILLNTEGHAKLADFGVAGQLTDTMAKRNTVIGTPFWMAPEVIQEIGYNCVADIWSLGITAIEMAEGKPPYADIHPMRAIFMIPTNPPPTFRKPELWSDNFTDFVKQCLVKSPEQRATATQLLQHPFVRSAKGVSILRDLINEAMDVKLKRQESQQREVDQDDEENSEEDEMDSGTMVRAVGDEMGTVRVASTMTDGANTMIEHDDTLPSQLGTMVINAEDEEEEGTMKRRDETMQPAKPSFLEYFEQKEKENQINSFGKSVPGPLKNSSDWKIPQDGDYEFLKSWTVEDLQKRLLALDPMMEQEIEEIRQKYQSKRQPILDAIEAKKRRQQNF

EEF2K = molecular target: T22, EEF2K (Homo sapiens, UniProt O00418); assay: Selectivity panel EEF2K; conditions: 5 µM inhibitor
T22 construct: purchased Life Technologies (Invitrogen SelectScreen); Dyrk1A, Dyrk2 and CK2α in-house or gifts

PHKG2 = molecular target: T23, PHKG2 (Homo sapiens, UniProt P15735); assay: Selectivity panel PHKG2; conditions: 5 µM inhibitor
T23 construct: purchased Life Technologies (Invitrogen SelectScreen); Dyrk1A, Dyrk2 and CK2α in-house or gifts

HIPK4 = molecular target: T24, HIPK4 (Homo sapiens, UniProt Q8NE63); assay: Selectivity panel HIPK4; conditions: 5 µM inhibitor
T24 construct: purchased Life Technologies (Invitrogen SelectScreen); Dyrk1A, Dyrk2 and CK2α in-house or gifts

DAPK3 (ZIPK) = molecular target: T25, DAPK3 (ZIPK) (Homo sapiens, UniProt O43293); assay: Selectivity panel DAPK3; conditions: 5 µM inhibitor
T25 construct: purchased Life Technologies (Invitrogen SelectScreen); Dyrk1A, Dyrk2 and CK2α in-house or gifts
T25 sequence (O43293 whole entry): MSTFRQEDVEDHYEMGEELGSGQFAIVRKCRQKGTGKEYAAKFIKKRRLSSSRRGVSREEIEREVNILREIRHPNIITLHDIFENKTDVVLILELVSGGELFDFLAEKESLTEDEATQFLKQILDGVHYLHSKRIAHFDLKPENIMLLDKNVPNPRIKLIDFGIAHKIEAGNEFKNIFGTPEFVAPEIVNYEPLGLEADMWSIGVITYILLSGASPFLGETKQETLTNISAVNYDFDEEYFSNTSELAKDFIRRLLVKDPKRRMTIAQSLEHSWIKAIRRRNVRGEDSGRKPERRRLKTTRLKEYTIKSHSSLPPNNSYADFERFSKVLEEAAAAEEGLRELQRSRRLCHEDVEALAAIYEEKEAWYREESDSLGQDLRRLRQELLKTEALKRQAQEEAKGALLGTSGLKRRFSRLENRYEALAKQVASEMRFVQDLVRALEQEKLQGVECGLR

AURKA (Aurora A) = molecular target: T26, AURKA (Aurora A) (Homo sapiens, UniProt O14965); assay: Selectivity panel AURKA; conditions: 5 µM inhibitor
T26 construct: purchased Life Technologies (Invitrogen SelectScreen); Dyrk1A, Dyrk2 and CK2α in-house or gifts

PIM2 = molecular target: T27, PIM2 (Homo sapiens, UniProt Q9P1W9); assay: Selectivity panel PIM2; conditions: 5 µM inhibitor
T27 construct: purchased Life Technologies (Invitrogen SelectScreen); Dyrk1A, Dyrk2 and CK2α in-house or gifts
T27 sequence (Q9P1W9 whole entry): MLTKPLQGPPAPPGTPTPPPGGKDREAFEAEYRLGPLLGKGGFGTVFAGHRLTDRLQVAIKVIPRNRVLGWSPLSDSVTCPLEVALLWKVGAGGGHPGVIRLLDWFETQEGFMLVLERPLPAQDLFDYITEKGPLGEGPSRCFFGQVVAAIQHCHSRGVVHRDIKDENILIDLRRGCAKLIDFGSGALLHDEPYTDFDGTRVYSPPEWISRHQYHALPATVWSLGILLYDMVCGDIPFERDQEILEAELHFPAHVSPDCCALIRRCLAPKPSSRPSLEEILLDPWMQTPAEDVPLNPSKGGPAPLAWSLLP

SMILES	pIC50 (Dyrk2)	inhibition at 5 µM (Dyrk2)	inhibition at 5 µM (CaMK1)	inhibition at 5 µM (MST1 (STK4))	inhibition at 5 µM (MKNK1 (MNK1))	inhibition at 5 µM (CDK1/cyclin B)	inhibition at 5 µM (RIPK2)	inhibition at 5 µM (MAP4K2 (GCK))	inhibition at 5 µM (RPS6KA5 (MSK1))	inhibition at 5 µM (PKN1 (PRK1))	inhibition at 5 µM (PRKD1 (PKC mu, PKD1))	inhibition at 5 µM (AMPK A1/B1/G1)	inhibition at 5 µM (BRSK1 (SAD1))	inhibition at 5 µM (PRKACA (PKA))	inhibition at 5 µM (TGFBR1 (ALK5))	inhibition at 5 µM (KDR (VEGFR2))	inhibition at 5 µM (RPS6KA1 (RSK1))	inhibition at 5 µM (LIMK1)	inhibition at 5 µM (MAP3K14 (NIK))	inhibition at 5 µM (AXL)	other results
c1cncc(-c2csc(-c3cncs3)c2)c1 [Compound 48, 3-[5-(1,3-thiazol-5-yl)thiophen-3-yl]pyridine]	7.40	100%	5%	9%	47%	42%	46%	6%	10%	-10%	-5%	-5%	-4%	3%	22%	10%	4%	4%	5%	-11%	inhibition at 5 µM (CDK2/cyclin A): 33%; inhibition at 5 µM (BTK): 15%; inhibition at 5 µM (EEF2K): 1%; inhibition at 5 µM (PHKG2): -11%; inhibition at 5 µM (HIPK4): 7%; inhibition at 5 µM (DAPK3 (ZIPK)): -5%; inhibition at 5 µM (AURKA (Aurora A)): 2%; inhibition at 5 µM (PIM2): 5%
Cn1cc(-c2csc(-c3cccnc3)c2)cn1 [Compound 30, 3-[4-(1-methyl-1H-pyrazol-4-yl)thiophen-2-yl]pyridine]	6.70 and 6.72	100%	17%	-10%	–	–	–	–	–	–	–	–	–	–	–	–	–	–	–	–	–
c1cncc(-c2cc(-c3cncs3)cs2)c1 [Compound 29, 3-[4-(1,3-thiazol-5-yl)thiophen-2-yl]pyridine]	6.40 and 6.37	93%	8%	0%	83%	29%	53%	32%	15%	-16%	-1%	-9%	11%	1%	24%	6%	2%	11%	2%	-2%	inhibition at 5 µM (CDK2/cyclin A): 22%; inhibition at 5 µM (BTK): 17%; inhibition at 5 µM (EEF2K): 0%; inhibition at 5 µM (PHKG2): -12%; inhibition at 5 µM (HIPK4): 7%; inhibition at 5 µM (DAPK3 (ZIPK)): -1%; inhibition at 5 µM (AURKA (Aurora A)): 5%; inhibition at 5 µM (PIM2): 7%

Second part, led by results:

pIC50 (Dyrk2)	inhibition at 5 µM (Dyrk2)	inhibition at 5 µM (CaMK1)	inhibition at 5 µM (MST1 (STK4))	SMILES	inhibition at 5 µM (MKNK1 (MNK1))	inhibition at 5 µM (CDK1/cyclin B)	inhibition at 5 µM (RIPK2)	inhibition at 5 µM (MAP4K2 (GCK))	inhibition at 5 µM (RPS6KA5 (MSK1))	inhibition at 5 µM (PKN1 (PRK1))	inhibition at 5 µM (PRKD1 (PKC mu, PKD1))	inhibition at 5 µM (AMPK A1/B1/G1)	inhibition at 5 µM (BRSK1 (SAD1))	inhibition at 5 µM (PRKACA (PKA))	inhibition at 5 µM (TGFBR1 (ALK5))	inhibition at 5 µM (KDR (VEGFR2))	inhibition at 5 µM (RPS6KA1 (RSK1))	inhibition at 5 µM (LIMK1)	inhibition at 5 µM (MAP3K14 (NIK))	inhibition at 5 µM (AXL)	other results
5.46 and 5.47	57%	0%	2%	c1cncc(-c2csc(-c3cncnc3)c2)c1 [Compound 41, 5-[4-(pyridin-3-yl)thiophen-2-yl]pyrimidine]	–	–	–	–	–	–	–	–	–	–	–	–	–	–	–	–	–
5.87 and 5.89	77%	12%	0%	c1cncc(-c2csc(-c3cnco3)c2)c1 [Compound 33, 3-[5-(1,3-oxazol-5-yl)thiophen-3-yl]pyridine]	–	–	–	–	–	–	–	–	–	–	–	–	–	–	–	–	–
